# Reference: patent US20100216777A1, “AMINOPYRAZINE ANALOGS FOR TREATING GLAUCOMA AND OTHER RHO KINASE-MEDIATED DISEASES AND CONDITIONS” (ALCON, INC., priority 2004, published 2010)
# Where a name gives a salt, the structure may show the parent alone.
# Molecular target: T1, Human Recombinant ROCK-II Enzyme (ROKα/ROCK-II, aa 11-552) (Homo sapiens, UniProt O75116)
# T1 construct: (ROKα/ROCK-II, (aa 11-552), human active); purchased Upstate Biotechnology Co., Lake Placid, N.Y. 14-451
# Test: ROCK-II inhibition, fluorescence polarization assay (IMAP ROCK II kit)
# Assay type: biochemical
# Conditions: substrate 200 nM, ATP 10 μM, 60 min at 23° C., read-out: Enzyme Inhibition Constants (IC50) against Human Recombinant ROCK-II Enzyme
# Protocol: The ability of certain compounds of Formula (I) to inhibit rho kinase was evaluated by means of in vitro assays. Human recombinant Rho kinase (ROKα/ROCK-II, (aa 11-552), human active, catalog #14-451, Upstate Biotechnology Co., Lake Placid, N.Y.), MgCl2/ATP cocktail, and enzyme substrate (Upstate) are used.
# The fluorescence polarization assays are performed using a Biomek 2000 Robotic Workstation (Beckman Instruments, Palo Alto, Calif.) in a 96-well plate format. The assays are performed utilizing the IMAP ROCK II kit (Molecular Devices, Sunnyvale, Calif.) as follows. Substrate and ATP concentrations used are 200 nM and 10 μM, respectively, while the enzyme concentration is 3.96×10^−3 units per well. The substrate, enzyme, and ATP dilutions are made with the reaction buffer provided by the vendor. Test compounds are diluted in 10:10 DMSO-ethanol (vol/vol). For the actual assays, the various components are added into black, clear bottom, 96-well plates (Costar, Corning, N.Y.) in a final volume of 20 μl per well. After the enzyme reaction (60 min at 23° C.), 60 μl of the binding solution (IMAP kit, provided by vendor) is added per well and incubated for an additional 30 minutes in the dark at 23° C. Fluorescence polarization of the reaction mixtures is then measured on the Analyst™ HT instrument (Molecular Devices, Sunnyvale, Calif.).
# The data generated are then analyzed using a non-linear, iterative, sigmoidal-fit computer program purchased from IDBS (Emeryville, Calif.) and as previously described (Sharif et al., J. Pharmacol. Exp. Ther. 286:1094-1102, 1998; Sharif et al., J. Pharmacol. Expt. Ther. 293:321-328, 2000; Sharif et al., J. Ocular Pharmacol. Ther. 18:141-162, 2002a; Sharif et al., J. Pharmac. Pharmacol. 54:539-547, 2002b) to generate the inhibition constants for the test compounds.
# T1 sequence (O75116 11-552): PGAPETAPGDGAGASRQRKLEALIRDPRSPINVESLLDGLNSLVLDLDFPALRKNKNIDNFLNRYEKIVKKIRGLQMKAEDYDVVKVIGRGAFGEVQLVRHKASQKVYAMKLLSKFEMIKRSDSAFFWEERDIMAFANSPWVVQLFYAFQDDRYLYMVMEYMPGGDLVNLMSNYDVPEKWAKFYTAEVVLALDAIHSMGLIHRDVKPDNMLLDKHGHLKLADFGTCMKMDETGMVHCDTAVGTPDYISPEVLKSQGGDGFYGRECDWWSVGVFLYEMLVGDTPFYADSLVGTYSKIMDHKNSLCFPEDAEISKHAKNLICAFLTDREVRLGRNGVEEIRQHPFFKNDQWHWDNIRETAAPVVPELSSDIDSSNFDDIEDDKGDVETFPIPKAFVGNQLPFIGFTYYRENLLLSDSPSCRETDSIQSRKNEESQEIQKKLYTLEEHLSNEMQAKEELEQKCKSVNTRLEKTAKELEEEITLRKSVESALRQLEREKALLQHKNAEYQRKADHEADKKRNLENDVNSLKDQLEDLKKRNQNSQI
row,SMILES,IC50 [nM]
1,"Nc1ncc(-c2ccncc2)nc1OC1CCNCC1 [Example 22, 3-(Piperidin-4-yloxy)-5-(pyridin-4-yl)pyrazin-2-amine]",1.1
2,"CN(C)c1ncc(-c2ccncc2)nc1OC1CCNCC1 [Example 35, N,N-Dimethyl-3-(piperidin-4-yloxy)-5-(pyridin-4-yl)pyrazin-2-amine hydrochloride]",0.94
3,"c1cc2[nH]ncc2cc1-c1cnc(N2CCCC2)c(N2CCCNCC2)n1 [Example 42, 5-(6-(1,4-Diazepan-1-yl)-5-(pyrrolidin-1-yl)pyrazin-2-yl)-1H-indazole hydrochloride]",0.033
4,"COCCNc1ncc(-c2ccncc2)nc1N1CCCN(C)CC1 [Example 27, N-(2-Methoxyethyl)-3-(4-methyl-1,4-diazepan-1-yl)-5-(pyridin-4-yl)pyrazin-2-amine hydrochloride]",5.2
5,"CNc1ncc(-c2ccncc2)nc1NC1CCCNC1 (stereo not shown) [Example 26, N^2-Methyl-N^3-(piperidin-3-yl)-5-(pyridin-4-yl)pyrazine-2,3-diamine hydrochloride]",2.1
6,"c1cc(-c2cnc(N3CCCC3)c(OC3CCNCC3)n2)ccn1 [Example 46, 3-(Piperidin-4-yloxy)-5-(pyridin-4-yl)-2-(pyrrolidin-1-yl)pyrazine]",0.084
7,"Nc1ncc(-c2ccncc2)nc1N1CCCCC1 [Example 10, 3-(Piperidin-1-yl)-5-(pyridin-4-yl)pyrazin-2-amine]",59
8,"c1cc(-c2cnc(N3CCCCCC3)c(NC3CCCNC3)n2)ccn1 (stereo not shown) [Example 51, 3-(Azepan-1-yl)-N-(piperidin-3-yl)-6-(pyridin-4-yl)pyrazin-2-amine dihydrochloride]",0.19
9,"Nc1ncc(-c2ccncc2)nc1N1CCC(CO)CC1 [Example 11, (1-(3-Amino-6-(pyridin-4-yl)pyrazin-2-yl)piperidin-4-yl)methanol]",17
10,"c1cc(-c2cnc(N3CCCC3)c(NC3CCCNC3)n2)ccn1 (stereo not shown) [Example 45, N-(Piperidin-3-yl)-6-(pyridin-4-yl)-3-(pyrrolidin-1-yl)pyrazin-2-amine dihydrochloride]",0.25
